Laboratory results published in patent publication US10208059B2, “Heterocyclic modulators of HIF activity for treatment of disease” (Board of Regents, University of Texas System, priority 2012, dated 2019).
Where a name gives a salt, the structure may show the parent alone.

Test system: 293T-HRE-GFP-luc cells
Test: Cell-based reporter assay for IC50 determinations
Conditions: hypoxia 6 hrs (1% O2), luminescence, read-out: IC50 Classification
Procedure: Cell-Based Reporter Assay for IC50 Determinations
293T-HRE-GFP-luc cells were routinely maintained in DMEM media (high glucose version with GlutaMAX and HEPES, Gibco, catalog #10564) supplemented with 10% fetal bovine serum and 2 μg/mL puromycin (Invitrogen, catalog #A11138-03) using a humidified incubator (normoxia conditions consisting of 37° C., 5% CO2 and ambient O2).
In preparation for the reporter assay, cells were harvested and resuspended in DMEM media (high glucose version with GlutaMAX and HEPES) supplemented with 10% fetal bovine serum. Cells were inoculated into 384-well white Culturplates (Perkin Elmer catalog #6007680) at a density of 12,000 cells/well in a volume of 30 μL. The microplates were incubated overnight (approximately 17-19 hours) at 37° C. with 5% CO2 and ambient O2. Stock solutions of the test compounds were prepared in DMSO (Sigma, Catalog #D2650) and serially diluted 1:3 using DMSO. Compounds were additionally diluted (1:50) with culturemedium and 10 μL were added per well to the Culturplate. Following a 30 min. incubation under normoxia conditions, the plates were incubated in hypoxia for 6 hrs. (37° C., 5% CO2 and 1% O2). Steadylite Plus (Perkin Elmer, catalog #6016751) was then added (40 μL/well), the plates were mixed on an orbital shaker at room temperature in the dark for 15 min., and luminescence was measured using an Envision plate reader (Perkin Elmer). IC50 values were calculated using a four-parameter logistic curve fit. Results are shown below in Table 2; ND indicates no data.

| Structure (SMILES) | IC50 [nM] |
| --- | --- |
| Cc1nc(-c2nc(-c3ccc(OC(F)(F)F)cc3)no2)nn1Cc1cccc(C(=O)NCCN(C)C)c1 [Example 30, N-(2-(Dimethylamino)ethyl)-3-((5-methyl-3-(3-(4-(trifluoromethoxy)phenyl)-1,2,4-oxadiazol-5-yl)-1H-1,2,4-triazol-1-yl)methyl)benzamide] | < 100 |
| Cc1nc(-c2nc(-c3ccc(OC(F)(F)F)cc3)no2)nn1Cc1ccnc(N2CCC(C)(C)CC2)c1 [Example 31, 5-(1-((2-(4,4-Dimethylpiperidin-1-yl)pyridin-4-yl)methyl)-5-methyl-1H-1,2,4-triazol-3-yl)-3-(4-(trifluoromethoxy)phenyl)-1,2,4-oxadiazole] | < 100 |
| COCCCNc1cc(Cn2nc(-c3nc(-c4ccc(OC(F)(F)F)cc4)no3)nc2C)ccn1 [Example 32, N-(3-Methoxypropyl)-4-((5-methyl-3-(3-(4-(trifluoromethoxy)phenyl)-1,2,4-oxadiazol-5-yl)-1H-1,2,4-triazol-1-yl)methyl)pyridin-2-amine] | < 100 |
| CCc1nc(-c2nc(-c3ccc(OC(F)(F)F)cc3)no2)nn1Cc1ccccc1 [Example 33, 5-(1-Benzyl-5-ethyl-1H-1,2,4-triazol-3-yl)-3-(4-(trifluoromethoxy)phenyl)-1,2,4-oxadiazole] | 1000 to 10000 |
| FC(F)(F)Oc1ccc(-c2noc(-c3nc(C4CC4)n(Cc4ccccc4)n3)n2)cc1 [Example 34, 5-(1-Benzyl-5-cyclopropyl-1H-1,2,4-triazol-3-yl)-3-(4-(trifluoromethoxy)phenyl)-1,2,4-oxadiazole] | 1000 to 10000 |
| Cc1nc(-c2nc(-c3ccc(OC(F)(F)F)cc3)no2)nn1Cc1ccnc(NCCN2CCOCC2)c1 [Example 35, 4-((5-Methyl-3-(3-(4-(trifluoromethoxy)phenyl)-1,2,4-oxadiazol-5-yl)-1H-1,2,4-triazol-1-yl)methyl)-N-(2-morpholinoethyl)pyridin-2-amine] | < 100 |
| CNc1cc(Cn2nc(-c3nc(-c4ccc(OC(F)(F)F)cc4)no3)nc2C)ccn1 [Example 36, N-Methyl-4-((5-methyl-3-(3-(4-(trifluoromethoxy)phenyl)-1,2,4-oxadiazol-5-yl)-1H-1,2,4-triazol-1-yl)methyl)pyridin-2-amine] | < 100 |
| Cc1nc(-c2nc(-c3ccc(OC(F)(F)F)cc3)no2)nn1Cc1ccnc(N(C)C)c1 [Example 37, N,N-Dimethyl-4-((5-methyl-3-(3-(4-(trifluoromethoxy)phenyl)-1,2,4-oxadiazol-5-yl)-1H-1,2,4-triazol-1-yl)methyl)pyridin-2-amine] | < 100 |
| CC(=O)N1CCN(c2cc(Cn3nc(-c4nc(-c5ccc(OC(F)(F)F)cc5)no4)nc3C)ccn2)CC1 [Example 38, 1-(4-(4-((5-Methyl-3-(3-(4-(trifluoromethoxy)phenyl)-1,2,4-oxadiazol-5-yl)-1H-1,2,4-triazol-1-yl)methyl)pyridin-2-yl)piperazin-1-yl)ethanone] | < 100 |
| Cc1nc(-c2nc(-c3ccc(OC(F)(F)F)cc3)no2)nn1Cc1cccc(C(=O)NCCO)c1 [Example 39, N-(2-Hydroxyethyl)-3-((5-methyl-3-(3-(4-(trifluoromethoxy)phenyl)-1,2,4-oxadiazol-5-yl)-1H-1,2,4-triazol-1-yl)methyl)benzamide] | 100 to 1000 |
| Cc1nc(-c2nc(-c3ccc(OC(F)(F)F)cc3)no2)nn1Cc1cccc(C(=O)N(C)C)c1 [Example 40, N,N-Dimethyl-3-((5-methyl-3-(3-(4-(trifluoromethoxy)phenyl)-1,2,4-oxadiazol-5-yl)-1H-1,2,4-triazol-1-yl)methyl)benzamide] | < 100 |
| COCCCNC(=O)c1ccc(Cn2nc(-c3nc(-c4ccc(OC(F)(F)F)cc4)no3)nc2C)cc1 [Example 41, N-(3-Methoxypropyl)-4-((5-methyl-3-(3-(4-(trifluoromethoxy)phenyl)-1,2,4-oxadiazol-5-yl)-1H-1,2,4-triazol-1-yl)methyl)benzamide] | 100 to 1000 |
| Cc1nc(-c2nc(-c3ccc(OC(F)(F)F)cc3)no2)nn1Cc1ccc(C(=O)N2CCN(C)CC2)cc1 [Example 42, (4-((5-Methyl-3-(3-(4-(trifluoromethoxy)phenyl)-1,2,4-oxadiazol-5-yl)-1H-1,2,4-triazol-1-yl)methyl)phenyl)(4-methylpiperazin-1-yl)methanone] | 100 to 1000 |
| Cc1nc(-c2nc(-c3ccc(OC(F)(F)F)cc3)no2)nn1Cc1ccnc(N2CCS(=O)(=O)CC2)c1 [Example 43, 2-(1,1-Dioxidothiomorpholino)-4-((5-methyl-3-(3-(4-(trifluoromethoxy)phenyl)-1,2,4-oxadiazol-5-yl)-1H-1,2,4-triazol-1-yl)methyl)pyridin-1-ium trifluoroacetate] | 100 to 1000 |
| Cc1nc(-c2nc(-c3ccc(OC(F)(F)F)cc3)no2)nn1Cc1cccc(N2CCOCC2)c1 [Example 44, 4-(3-((5-Methyl-3-(3-(4-(trifluoromethoxy)phenyl)-1,2,4-oxadiazol-5-yl)-1H-1,2,4-triazol-1-yl)methyl)phenyl)morpholine] | < 100 |
| Cc1nc(-c2nc(-c3ccc(OC(F)(F)F)cc3)no2)nn1Cc1ccnc(NCCN(C)C)c1 [Example 45, N1,N1-Dimethyl-N2-(4-((5-methyl-3-(3-(4-(trifluoromethoxy)phenyl)-1,2,4-oxadiazol-5-yl)-1H-1,2,4-triazol-1-yl)methyl)pyridin-2-yl)ethane-1,2-diamine] | 1000 to 10000 |
| Cc1nc(-c2nc(-c3ccc(OC(F)(F)F)cc3)no2)nn1Cc1ccnc(NCCN2CCCC2)c1 [Example 46, 4-((5-Methyl-3-(3-(4-(trifluoromethoxy)phenyl)-1,2,4-oxadiazol-5-yl)-1H-1,2,4-triazol-1-yl)methyl)-N-(2-(pyrrolidin-1-yl)ethyl)pyridin-2-amine] | 1000 to 10000 |
| Cc1nc(-c2nc(-c3ccc(OC(F)(F)F)cc3)no2)nn1Cc1ccc(Cl)s1 [Example 47, 5-(1-((5-Chlorothiophen-2-yl)methyl)-5-methyl-1H-1,2,4-triazol-3-yl)-3-(4-(trifluoromethoxy)phenyl)-1,2,4-oxadiazole] | 100 to 1000 |
| Cc1cc(Cn2nc(-c3nc(-c4ccc(OC(F)(F)F)cc4)no3)nc2C)n(C)n1 [Example 48, 5-(1-((1,3-Dimethyl-1H-pyrazol-5-yl)methyl)-5-methyl-1H-1,2,4-triazol-3-yl)-3-(4-(trifluoromethoxy)phenyl)-1,2,4-oxadiazole] | 100 to 1000 |
| Cc1nc(-c2nc(-c3ccc(OC(F)(F)F)cc3)no2)nn1Cc1cc(=O)n2ccsc2n1 [Example 49, 7-((5-Methyl-3-(3-(4-(trifluoromethoxy)phenyl)-1,2,4-oxadiazol-5-yl)-1H-1,2,4-triazol-1-yl)methyl)-5H-thiazolo[3,2-a]pyrimidin-5-one] | 100 to 1000 |
| Cc1nc(-c2nc(-c3ccc(OC(F)(F)F)cc3)no2)nn1Cc1cccc(N2CCCC2)c1 [Example 50, 5-(5-Methyl-1-(3-(pyrrolidin-1-yl)benzyl)-1H-1,2,4-triazol-3-yl)-3-(4-(trifluoromethoxy)phenyl)-1,2,4-oxadiazole] | 100 to 1000 |
| Cc1nc(-c2nc(-c3ccc(OC(F)(F)F)cc3)no2)nn1Cc1cccc(N2CCC(C#N)CC2)c1 [Example 51, 1-(3-((5-Methyl-3-(3-(4-(trifluoromethoxy)phenyl)-1,2,4-oxadiazol-5-yl)-1H-1,2,4-triazol-1-yl)methyl)phenyl)piperidine-4-carbonitrile] | < 100 |
| Cc1nc(-c2nc(-c3ccc(OC(F)(F)F)cc3)no2)nn1Cc1cccc(N(C)C)c1 [Example 52, N,N-Dimethyl-3-((5-methyl-3-(3-(4-(trifluoromethoxy)phenyl)-1,2,4-oxadiazol-5-yl)-1H-1,2,4-triazol-1-yl)methyl)aniline] | < 100 |
| COCCCNc1cccc(Cn2nc(-c3nc(-c4ccc(OC(F)(F)F)cc4)no3)nc2C)c1 [Example 53, N-(3-Methoxypropyl)-3-((5-methyl-3-(3-(4-(trifluoromethoxy)phenyl)-1,2,4-oxadiazol-5-yl)-1H-1,2,4-triazol-1-yl)methyl)aniline] | < 100 |
| Cc1nc(-c2nc(-c3ccc(OC(F)(F)F)cc3)no2)nn1Cc1cnccn1 [Example 54, 5-(5-Methyl-1-(pyrazin-2-ylmethyl)-1H-1,2,4-triazol-3-yl)-3-(4-(trifluoromethoxy)phenyl)-1,2,4-oxadiazole] | 1000 to 10000 |
| Cc1nc(-c2nc(-c3ccc(OC(F)(F)F)cc3)no2)nn1Cc1ccnc(N2CCOCC2)n1 [Example 55, 4-(4-((5-Methyl-3-(3-(4-(trifluoromethoxy)phenyl)-1,2,4-oxadiazol-5-yl)-1H-1,2,4-triazol-1-yl)methyl)pyrimidin-2-yl)morpholine] | < 100 |
| Cc1nc(-c2noc(-c3ccc(OC(F)(F)F)cc3)n2)nn1Cc1cccc(N2CCN(C)CC2)c1 [Example 56, 3-(5-Methyl-1-(3-(4-methylpiperazin-1-yl)benzyl)-1H-1,2,4-triazol-3-yl)-5-(4-(trifluoromethoxy)phenyl)-1,2,4-oxadiazole] | < 100 |
| Cc1nc(-c2noc(-c3ccc(OC(F)(F)F)cc3)n2)nn1Cc1cccc(N2CCOCC2)c1 [Example 57, 4-(3-((5-Methyl-3-(5-(4-(trifluoromethoxy)phenyl)-1,2,4-oxadiazol-3-yl)-1H-1,2,4-triazol-1-yl)methyl)phenyl)morpholine] | < 100 |
